Each block holds one compound with its values, some of them ahead of it.
Tests used:
[1] = method code SF-AS, from DOI: 10.1081/jlc-120022394
[2] = method code SF-AS, from Suikov, S.Yu.; Bondarenko, A.V.; Bogza, S.L.; Lutsyk, A.I. (2003). Distribution of 5-aminopyrazoles and 5-aminoisoxazoles in the octanol-water system. Ukr. Khim. Zh. (Russ. Ed.), 69(5/6)31-34.
[3] = method code SF, from DOI: 10.1002/etc.5620130110
[4] = method code SF-AS, from DOI: 10.1021/jm00291a017, PMID: 5140011
[5] = not given; remark: listed apart in the source
[6] = method code SF-AS, from DOI: 10.1021/acs.jmedchem.5b00731, PMID: 26397825; details: pH 7.4
[7] = method code SF-HPLC, from DOI: 10.1016/j.ejps.2013.10.002, PMID: 24161609
[8] = from Wadhwa, L.; Chandiran, S.; Sharma, P. (2004). Alkyl esters of 6-methoxy-2-naphthylacetic acid as potential prodrugs - Synthesis, physicochemical properties, chemical stability and enzymatic …; details: pH 7.4
[9] = not given; remark: listed apart in the source
[10] = method code SF-AS, from PMID: 7149911; details: pH 8.9
[11] = method code SF-HPLC, from DOI: 10.1248/cpb.38.1906, PMID: 2268893; details: pH 6.9
[12] = method code SF-AS, from DOI: 10.1016/j.bmcl.2014.05.029, PMID: 24930836
[13] = pH 7.4
[14] = not given; remark: listed apart in the source
[15] = not given; remark: listed apart in the source
[16] = method code SF-TN, from Korenman, I M.; Gurevich, N.; Kulagina, G. (1973). Extraction of certain n-alkylamines from aqueous solutions. Zh. Prikl. Khim., 46(3)726-728.
[17] = not given; remark: listed apart in the source
[18] = method code SF, from DOI: 10.1177/00220345800590120501, PMID: 6941993
[19] = method code SF-AS, from DOI: 10.1002/jps.2600671008, PMID: 702280; details: pH 7.0
[20] = method code SF-FL, from DOI: 10.1016/0006-2952(96)00248-1, PMID: 8687500
[21] = method code SF-AS, from DOI: 10.1093/oxfordjournals.jbchem.a131041, PMID: 939756; details: pH 7.4
[22] = method code SF-GLC, from DOI: 10.1021/jo01265a071
[23] = not given; remark: listed apart in the source
[24] = method code SF-HPLC, from DOI: 10.1016/j.bmcl.2004.01.062, PMID: 15026043; details: pH 5.5
[25] = not given; remark: listed apart in the source
[26] = method code SF-HPLC, from DOI: 10.1016/0378-5173(89)90133-6; details: pH 7.4
[27] = method code SF-AS, from DOI: 10.2116/analsci.8.761; details: pH 6.0
[28] = method code SF, from DOI: 10.1021/jm030399c, PMID: 14711317; details: pH 7.4
[29] = method code SF-RC, from DOI: 10.1016/j.nucmedbio.2016.05.003, PMID: 27236283; details: pH 7.4
[30] = method code SF-AS, from DOI: 10.1021/jm00197a006, PMID: 533877
[31] = method code SF-GR, from DOI: 10.1021/jm00219a024, PMID: 926124
[32] = method code SF-HPLC, from DOI: 10.1016/j.nucmedbio.2010.03.011, PMID: 20610161; details: pH 7.4
[33] = method code SF, from DOI: 10.1016/0041-008x(67)90079-8
[34] = not given; remark: listed apart in the source
[35] = method code SF-AS, from DOI: 10.1016/0006-2952(90)90117-4, PMID: 2344368; details: pH 7.5
[36] = method code SF-AS, from DOI: 10.1016/0891-5849(94)00112-w, PMID: 7744299; details: pH 7.5

logP [1]: 1.97
SMILES: CCOC(=O)C(=Cc1ccc(OC)c(OC)c1)NC=O

logP [2]: 2.02
SMILES: Cc1noc(N)c1-c1ccccc1

SMILES: COP(=O)(OC)C(O)C(Cl)(Cl)Cl (stereo not given)
logP [3]: 1.7

SMILES: Oc1nc(Cl)c(Cl)cc1Cl
logP: 2.27

logP [4]: -0.05
SMILES: S=C1CCCN1

SMILES: CC(Cl)Cl
logP [5]: 1.82

logD [6]: 2.73
SMILES: COCCOCCOCCOCCOCN(C)c1ccc(C=C2CCC(=Cc3ccc(N(C)COCCOCCOCCOCCOC)cc3)C2=O)cc1

logP [7]: -0.04
SMILES: O=C(O)/C=C/C(=O)O

logD [8]: 3.04
SMILES: COC(=O)Cc1ccc2cc(OC)ccc2c1

logP [9]: -0.05
SMILES: O=[N+]([O-])c1cncnc1

SMILES: CN(N=O)C(N)=O
logD [10]: -0.4

logD [11]: 1.37
SMILES: CON=C(C(=O)NC1C(=O)N2C(C(=O)OCOC(=O)C(C)(C)C)=C(CN(C=O)C(C)=C3CCOC(=O)S3)CSC12)c1csc(N)n1 (stereo not given)

logP [12]: 0.48
SMILES: Cc1cc(=O)oc2cc(OCC(O)Cn3nnc4ccccc43)cc(OCC(O)Cn3nnc4ccccc43)c12 (stereo not given)

logD [13]: 4.3
SMILES: CCCCC(OC(Cc1ccccc1)C(=O)N1CCC(OCOC)CC1)C(=O)NC(CC1CCCCC1)[C@@H](O)CC(C(=O)NCCCNC(C)=O)C(C)C (stereo not given in full)

SMILES: Cc1nnn[nH]1
logP [14]: -0.49

logP [15]: 2.9
SMILES: CC(=O)O[C@H]1C(=O)[C@@]2(C)[C@H]([C@H](OC(=O)c3ccccc3)[C@]3(O)C[C@H](OC(=O)[C@@H](O)Cc4ccccc4)C(C)=C1C3(C)C)[C@]1(OC(C)=O)CO[C@@H]1C[C@@H]2O

logP [16]: 0.28
SMILES: CCCN

logP [17]: 3.99
SMILES: CCN(CC)C(=O)C(C#N)=Cc1cc(OC(=O)CC(=O)C(C)(C)C)c(OC(=O)CC(=O)C(C)(C)C)c([N+](=O)[O-])c1

SMILES: C=COC(C)=O
logP [18]: 0.6

logD [19]: 1.34
SMILES: Clc1ccccn1

logP [20]: -2
SMILES: COc1cccc2c1C(=O)c1c(O)c3c(c(O)c1C2=O)CC(O)(C(C)=O)CC3OC1CC(NC(=O)OC2OC(C(=O)O)C(O)C(O)C2O)C(O)C(C)O1 (stereo not given)

logD [21]: 0.69
SMILES: COC1=C(C2=C(OC)C(=O)c3c4c(cc(OC)c3C2=O)CC(C)OC4=O)C(=O)c2c(OC)cc3c(c2C1=O)C(=O)OC(C)C3 (stereo not given)

SMILES: CCCCCl
logP [22]: 2.39

logD [8]: 4.75
SMILES: CCCCOC(=O)Cc1ccc2cc(OC)ccc2c1

SMILES: CCCC[N+](=O)[O-]
logP [23]: 1.38

SMILES: CN(C)C(=O)Oc1ccc(CC(NC(=O)C2N(S(=O)(=O)c3cnn(C)c3)CSC2(C)C)C(=O)OCCOc2ccccc2)cc1 (stereo not given)
logD [24]: 3.27

logP [25]: -2
SMILES: O=C(O)P(=O)(O)O

logD [26]: 3.4
SMILES: OC(Cn1ccnc1)c1ccc(CCc2ccccc2)cc1 (stereo not given)

logD [27]: 2.72
SMILES: OCc1cc(Br)cc(Br)c1O

logP [20]: -0.74
SMILES: COc1cccc2c1C(=O)c1c(O)c3c(c(O)c1C2=O)CC(O)(C(=O)CO)CC3OC1CC(NC(=O)OCc2ccc(OC3OC(C(=O)O)C(O)C(O)C3O)c([N+](=O)[O-])c2)C(O)C(C)O1 (stereo not given)

logD [28]: 1.84
SMILES: O=C(NCCOCCNc1n[n+]([O-])c2ccccc2[n+]1[O-])c1cccc2cc3ccccc3nc12

logD [29]: 1.51
SMILES: COc1cc(NCCCF)cc(OC)c1NC(=O)c1ccc(Oc2cc3c(cc2C)CCC3(C)C)o1

logP [30]: 0.39
SMILES: CC(=O)C=NO

logP [31]: -0.22
SMILES: CCCNC(=O)NO

SMILES: O=[N+]([O-])c1ncn(CC(O)CF)n1 (stereo not given)
logD [32]: -0.46

logP [17]: 3.86
SMILES: CCN(CC)C(=O)C(C#N)=Cc1cc(OCOC(=O)C(C)(C)C)c(OCOC(=O)C(C)(C)C)c([N+](=O)[O-])c1

logD [11]: 2.16
SMILES: CON=C(C(=O)NC1C(=O)N2C(C(=O)OCOC(=O)C(C)(C)C)=C(CN(C=O)C(C)=C(CCC(C)=O)SC(C)=O)CSC12)c1csc(N)n1 (stereo not given)

logD [29]: 2.1
SMILES: COc1cc(OCCF)cc(OC)c1NC(=O)c1ccc(Oc2cc3c(cc2C)CCC3(C)C)o1

logD [13]: 4.4
SMILES: CCCCC(OC(Cc1ccccc1)C(=O)N1CCC(OCOC)CC1)C(=O)NC(CC1CCCCC1)[C@@H](O)CC(C(=O)NCCCN/C(=N/C)NC#N)C(C)C (stereo not given in full)

logP [12]: 0.61
SMILES: Cc1cc2ncn(CC(O)COc3cc(OCC(O)Cn4cnc5cc(C)c(C)cc54)c4c(C)cc(=O)oc4c3)c2cc1C (stereo not given)

SMILES: COC1=C(C2=C(OC)C(=O)c3cc4c(c(O)c3C2=O)C(=O)O[C@H](C)C4)C(=O)c2c(cc3c(c2O)C(=O)O[C@H](C)C3)C1=O
logD [21]: 0.37

SMILES: Clc1nc(Cl)c(Cl)c(Cl)c1Cl
logP [33]: 3.53

logP [34]: -0.68
SMILES: CNC(N)=S

logD [35]: 1.56
SMILES: COc1cccc2c1C(=O)c1c(O)c3c(c(O)c1C2=O)CC(O)(CCO)CC3OC1CC(NC(C)=O)C(O)C(C)O1 (stereo not given)

logD [36]: 0.91
SMILES: CC(C)(C)N=O

logD [35]: 1.27
SMILES: COc1cccc2c1C(=O)c1c(O)c3c(c(O)c1C2=O)C[C@@](O)(C(=O)CO)C[C@@H]3O[C@H]1C[C@H](NC(C)=O)[C@H](O)[C@H](C)O1

logP [1]: 2.22
SMILES: CCOC(=O)C(=Cc1ccc(OC)cc1)NC=O

logP [15]: 2.9
SMILES: CC(=O)O[C@H]1C(=O)[C@@]2(C)[C@H]([C@H](OC(=O)c3ccccc3)[C@]3(O)C[C@H](OC(=O)[C@H](O)Cc4ccccc4)C(C)=C1C3(C)C)[C@]1(OC(C)=O)CO[C@@H]1C[C@@H]2O

logD [6]: 2.54
SMILES: COCCOCCOCCOCCOCN(C)c1ccc(C=C2CC(=Cc3ccc(N(C)COCCOCCOCCOCCOC)cc3)C2=O)cc1

logP [2]: 1.65
SMILES: Cc1c(-c2ccccc2)n[nH]c1N

From the SangsterLogP compilation
